# Measured values: a melting point compilation (Tetko et al.; mined from patent text by program, amines drawn as free bases though some values may be those of a salt)
row,SMILES,melting point
1,CNC(=O)[C@@H](C[C@H](O)[C@H](CC1CCCCC1)NC(=O)[C@H](Cc1cscn1)NC(=O)[C@@H](CC(=O)N1CCOCC1)Cc1ccccc1)C(C)C,83 to 86 °C
2,CCN(CC)S(=O)(=O)c1cc(Cl)cc(O)c1O,62 to 64 °C
3,CN1CCN(c2ccc(N)c(C(=O)O)c2)CC1,212 °C
4,CCOC(=O)C(=CNC1CC1)C(=O)c1c(F)cc(F)c(F)c1C,69 to 72 °C
5,CCN1CCc2cc(OC)c(OC)cc2C12CCC(C=O)CC2C1c2cc(OC)c(OC)cc2CCN1C (configuration not stated),137 to 139 °C
6,CCN1CCCC1CNC(=O)c1c(O)ccc(Br)c1O (configuration not stated),166 to 168 °C
7,CCN1CCN(c2ccc(C(=O)NCCCCCCCCCCCCO)cn2)CC1,108 to 110 °C
8,CCCCN(CC)c1cc(C)nc(Sc2c(C)cc(C)cc2C)c1,110 to 112 °C
9,O=c1cc(-c2nnn[nH]2)oc2cc(CCc3cccc(OCc4ccc5ccccc5n4)c3)ccc12,201 to 205 °C
10,Cc1sc(S(N)(=O)=O)cc1[N+](=O)[O-],120 °C
11,CC(CO)Oc1cc(Oc2ccc(S(C)(=O)=O)cc2)cc2cc(C3=NCC(CC(N)=O)S3)[nH]c12 (configuration not stated),137 to 142 °C
12,Oc1ccc(O)c(F)c1,33 to 35 °C
13,CN1CC=C(C2=C(C#N)C(c3cccc(C#N)c3Br)c3c[nH]nc3N2)CC1 (configuration not stated),233 °C
14,O=[N+]([O-])c1cccc(-c2nnc(NCc3cccc4ccccc34)s2)c1,150 to 151 °C
15,N#CC1=Nc2cc(Cl)ccc2Oc2ccccc21,161 to 168 °C
16,COc1ccc(Nc2ccc(Nc3ncnc4cc(-c5cccs5)sc34)cc2)cc1,231 to 240 °C
17,CC1(C)Oc2cc(C(=O)O)sc2[C@@H](N2CCCCC2=O)[C@@H]1O (relative stereo),268 to 270 °C
18,OCc1cn(-c2ccc3ccccc3n2)cn1,136 to 137 °C
19,COc1cc2cc(C(=O)N3CC(CCl)c4c3cc(N(C)C)c3ccccc43)[nH]c2c(OC)c1OC (configuration not stated),174 to 175 °C
20,CCOC(=O)c1cc2cc(Br)ccc2[nH]1,160 to 164 °C
21,CC(C)(C)C(O)(C=Cc1ccc(Cl)cc1)Cn1cncn1 (configuration not stated),81 to 83.5 °C
22,Fc1cccc2c(OCCc3ccc(Oc4ccc(C(F)(F)F)cn4)cc3)ncnc12,116 to 118 °C
23,CCOC(=O)c1cc2cc(OCCN(C)C)ccc2[nH]1,110 °C
24,O=S(=O)(N[C@H](CO)Cc1c[nH]c2ccccc12)c1cccc2ccccc12,85 to 87 °C

row,SMILES,melting point
1,CC(=O)Nc1ccc(C(=O)O)cc1OC(C)=O,219 to 221 °C
2,O=C1C=C(c2ccccc2)SCCN1,148 to 150 °C
3,Cc1cc(Cl)ccc1Cn1nc(OC(C)C)cc1CCCOc1ncccc1CC(=O)O,97 to 98 °C
4,CC(C)Oc1ccc(CO)c(Oc2ncc(C(F)(F)F)cc2Cl)c1,63 to 64 °C
5,N#CCCNC(=O)c1cccc(-c2cccc3c2OC(Cc2cccc(C(F)(F)F)c2)C3)c1 (configuration not stated),145 to 146 °C
6,CCOC(=O)Nc1nc(C)c(-c2nc3ccccc3c(=O)n2-c2ccc(Cl)cc2)s1,> 275 °C
7,OC(Cn1ccnc1)c1ccccc1 (configuration not stated),146 to 148 °C
8,O=C(O)C(Cl)(Cl)CCCCCCCCCCCCS(=O)c1ccccc1 (configuration not stated),68 °C
9,CC(C)(C)n1c(=O)c2c(-c3ccc(F)cc3)ncn2c2ccccc21,135 to 137 °C
10,N#CC[C@H](O)Cc1cc2ccccc2[nH]1,92 to 93 °C
11,OCC12COC(O1)C(O)C(O)C2O (configuration not stated),166 to 168 °C
12,CCc1[nH]n(C2CCCC2)c2nc(-c3ccc4c(c3)CC(C)O4)nc(=O)c1-2 (configuration not stated),164 to 165 °C
13,COc1cccc(OC)c1S(=O)(=O)OCC(=NNc1ccccc1)c1ccccc1,168 °C
14,N#Cc1c(Cl)c(Cl)n(C#N)c1-c1ccc(Cl)c(Cl)c1,250 to 252 °C
15,O=C1COC(c2ccccc2)(c2ccccc2)CCN1Cc1ccccc1,185 to 186 °C
16,CCCc1c(OCCCOc2c(C(C)=O)ccc(OCC(=O)OCC)c2CCC)ccc(C(C)=O)c1O,45 to 46 °C
17,Cn1cnc(C(O)c2cc(Cl)cc3c2OC(C)(C)OC3)c1 (configuration not stated),131 to 136 °C
18,CC1(C)OC(=O)C(C(=O)C2CC2)C(=O)O1,44 to 46 °C
19,Cc1ccc(N2CCCCC2)c(C(C)C(C(N)=O)c2ccc(C(=O)O)cc2)c1 (configuration not stated),215 to 217 °C
20,COc1ccc2c(n1)c(CCNC(=O)c1ccco1)c1n2CCCC1,104 to 105 °C
21,CCCCOc1cc2cc(C(=O)OC)c(C(=O)OC)c(-c3ccnc(Cl)c3)c2cc1OC,143 to 147 °C
22,Cc1ncc([N+](=O)[O-])n1CCN1C(=O)CCC1=O,147 to 148 °C
23,C=C1N(C)C(=O)OC12CCN(CCCN1c3ccccc3Sc3ccc(C(F)(F)F)cc31)CC2,116 to 118 °C
24,S=C(NCCCCN(Cc1ccc(Cl)c(Cl)c1)c1ccccn1)NCCCn1ccnc1,112 to 114 °C

row,SMILES,melting point
1,CCCCn1nc(CCC)nc1Cc1ccc(-c2ccccc2-c2nnn[nH]2)nc1,164 to 166 °C
2,O=C(CC(=O)C1CC1)c1cccnn1,85 to 87 °C
3,CCOC(=O)c1cn(CC)c2cc(OS(=O)(=O)C(F)(F)F)c(F)cc2c1=O,83 to 85 °C
4,O=C1CCCN1c1ccnn1-c1c(Cl)cc(C(F)(F)F)cc1Cl,130 to 131 °C
5,CCN(CC)c1nc(N)nc(-c2ccc(Cl)c(Cl)c2)n1,201 to 204 °C
6,Nc1ccc(Sc2cc(F)ccc2CC(=O)O)cc1,151 to 155 °C
7,O=c1c2c(c3cccnc3n1-c1ccccc1)OCC(O)C2 (configuration not stated),296 to 298 °C
8,CC(C)(C)OC(=O)NCC(CC(=O)Nc1ccccc1)c1ccc(Cl)cc1 (configuration not stated),165 to 167 °C
9,CCOC(=O)CCCCOc1cccc(O)c1C=O,32 to 33 °C
10,CNC(=O)N1C2c3ccccc3OCC2(C(=O)OC)CN1C(=O)Nc1ccc(C(F)(F)F)cc1 (configuration not stated),208 to 209 °C
11,COc1c(F)cc(NN)cc1F,60.5 to 62.3 °C
12,CC(=O)CC(=O)N1c2ccc(C(O)(C(F)(F)F)C(F)(F)F)cc2CC1C (configuration not stated),118 to 119 °C
13,CCCCc1cc2ccccc2c(Cc2ccc(C(=O)O)cc2)n1,112 °C
14,CCOC(=O)Cn1cc(I)c(NC(=O)c2ccccc2)nc1=O,154 to 155 °C
15,CCCCCCOc1ccc2[nH]c(SC(C)(CO)c3ccccc3)cc2c1 (configuration not stated),93.5 to 95.5 °C
16,Cc1c(F)c(Oc2cc(C(F)(F)F)nn2C)nc(Oc2cc(C(F)(F)F)nn2C)c1F,101 °C
17,Cc1nc2c(C(F)(F)F)cccc2c(=O)n1C1CCC(=O)NC1=O (configuration not stated),351 to 353 °C
18,COc1ccc(-c2noc(C)n2)c(OC)c1C,105 to 107 °C
19,c1cc(-c2cc3nccnc3[nH]2)cc(C2OCCCO2)c1,205 to 206 °C
20,COc1cccc(NC(=O)NC2N=C(c3ccccc3F)c3cccc(C)c3N(CC(=O)N3CC4CCC(CC4)C3)C2=O)c1 (configuration not stated),241 to 243 °C
21,CCOC(=O)C(C#N)=CNc1cccc(I)c1,140 to 141 °C
22,O=C(O)C1=Cc2c(cc(Cl)c(Cl)c2Cl)OC1C(F)(F)F (configuration not stated),236 to 239 °C
23,CCOC(OCC)c1cc(NC(c2ccccc2)(c2ccccc2)c2ccccc2)c(F)c(-c2ccc(Cl)c(OC)c2F)n1,177 to 180 °C
24,O=C(CO)c1cccc(Br)c1,100 to 101 °C
